Assay [1] can be described thus: Inhibition of potato LOX5 by enzyme immuno assay. Set-up: species or system Solanum tuberosum.
Another assay has as its system Rattus norvegicus. Put plainly: Antiinflammatory activity against carrageenan-induced orally dosed rat assessed paw edema after 3 hrs. The assay is classed as functional. The note with it: po.
For assay [2], the target named is T1, Prostaglandin G/H synthase 1 (Ovis aries, UniProt P05979).
T1 sequence (P05979 whole entry): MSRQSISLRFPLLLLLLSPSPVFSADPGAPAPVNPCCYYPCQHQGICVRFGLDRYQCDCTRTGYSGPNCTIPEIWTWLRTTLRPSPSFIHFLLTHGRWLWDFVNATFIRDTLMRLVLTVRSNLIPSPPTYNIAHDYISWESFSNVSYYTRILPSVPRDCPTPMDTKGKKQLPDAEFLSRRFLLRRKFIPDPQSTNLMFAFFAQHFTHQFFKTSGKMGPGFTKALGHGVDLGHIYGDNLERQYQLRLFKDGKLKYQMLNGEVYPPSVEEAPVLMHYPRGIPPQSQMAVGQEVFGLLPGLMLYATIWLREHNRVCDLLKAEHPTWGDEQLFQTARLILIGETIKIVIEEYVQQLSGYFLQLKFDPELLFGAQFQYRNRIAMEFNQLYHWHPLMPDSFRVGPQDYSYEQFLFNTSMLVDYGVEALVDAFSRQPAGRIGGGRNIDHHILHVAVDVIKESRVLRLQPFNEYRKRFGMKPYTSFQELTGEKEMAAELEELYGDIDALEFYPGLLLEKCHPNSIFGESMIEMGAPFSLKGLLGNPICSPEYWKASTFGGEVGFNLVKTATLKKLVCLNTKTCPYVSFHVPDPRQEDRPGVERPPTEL
Description: Inhibition of ovine COX1 by enzyme immuno assay

As for `Cc1ccc(-c2cc(C(F)(F)F)nn2-c2ccc(S(N)(=O)=O)cc2)cc1` [CELECOXIB], in assay [1], the IC50 is greater than 10 µM.

`O=C(O)/C=C/c1ccc(O)c(O)c1` [CAFFEIC ACID] registered an IC50 in assay [1] of 3.47 µM. This lies in the single-digit micromolar range.

In the case of `NS(=O)(=O)c1ccc(-n2nc(C(F)(F)F)cc2-c2ccn(O)c(=O)c2)cc1`, it took a dose of 99.8 mg/kg to reach the 50% effect level in the assay with Rattus norvegicus (ED50). For the same compound, the results for the IC50 in assay [1] and in assay [2] were 4.9 µM and 10.2 µM, respectively.

In the assay on Rattus norvegicus, `CS(=O)(=O)c1ccc(-n2nc(C(F)(F)F)cc2-c2ccn(O)c(=O)c2)cc1` had an ED50 of 66.9 mg/kg. Also, the IC50 in assay [1] turned out to be 0.35 µM; in assay [2], 13.2 µM.

The term IC50 denotes the concentration that inhibits the measured activity by half. Read a low IC50 as greater potency. For orientation: ED50 means the midpoint of the dose-response relation.

(Values after ChEMBL document CHEMBL1152140 (Bioorg Med Chem Lett, 2008).)
